Measured values published in patent US20050163773A1, “Methods and pharmaceutical compositions for dopaminergic modulation of t-cell adhesion and activity” (priority 2001, published 2005).
“And” between values parts separate entries of the source, which are not always exact repeats. Identical values can stand only once.

How the values were obtained:
normal human T-cells [1] = assay: Membrane potential measurement by flow cytometry, human T-cells; format: cell-based; details: DPAT 10^−8 M
Experimental: (§1) Membrane potential measurements by flow cytometry: Purified normal human or mouse antigen-specific T-cells were incubated in serum-free medium (RPMI, ˜1×10^6/ml, 1 hr, 37° C., 10% CO2 humidified incubator) to assure steady state conditions. The cells were then washed, resuspended in normal RPMI, distributed into individual tubes (˜1×10^6/tube), added with 300 nM di-BA-C4(3) oxanol dye (Molecular Probes, Inc., Eugene, Oreg., USA), and 5-15 minutes later added with DPAT (10^−8 M). Alternatively, the human T-cells were resuspended either in normal RPMI, or in rich K^+ RPMI solutions, incubated for 30 min (37° C., 10% CO2), and loaded with 300 nM di-BA-C4(3) oxanol dye. The cell fluorescence was analyzed on the FACSORT at 488 nm.

[2] = test system: mouse antigen-specific (MBP87-99) T-cells; assay: Membrane potential measurement by flow cytometry, mouse antigen-specific T-cells; format: cell-based; details: DPAT 10^−8 M; di-BA-C4(3) oxanol dye
Experimental: as §1

[3] = test system: SJL/J anti PLP 139-151 T-cells; assay: Experimental autoimmune encephalomyelitis (EAE) induced by encephalitogenic T-cells treated ex vivo; format: in vivo, mouse
normal human T-cells [4] = assay: T-cell adhesion assay (adhesion of human T-cells to fibronectin)
Experimental: T-cell adhesion assay: In the majority of the experiments, adhesion of purified normal human T-cells to fibronectin was assayed with radioactively labeled T-cells as follows: normal human T-cells, purified from a fresh blood sample, were labeled with Na2[^51CrO4], washed, and resuspended in adhesion medium (RPMI-1640 supplemented with 2% BSA, 1 mM Ca^++, 1 mM Mg^++, 1% sodium pyruvate, 1% glucose, and 1% HEPES buffer). The cells were then pre-treated (30 min., 37° C.) with DPAT, and added to fibronectin coated (1 μg/well; Sigma Chemicals, St. Louis, Mo.) microtiter flat-bottomed 96 well plates (1×10^5 cells/100 μl/well). The plates were placed in a humidified incubator (37° C., 30 min., 10% CO2), and than washed thoroughly several times with PBS, to remove non-adherent T-cells. The adherent T-cells were lysed with 1% Tween 20 in 1N NaOH, and the radioactivity in the resulting supernatants was determined in a γ-counter. For each experimental group, results were expressed as the mean CPM±SD of bound T-cells from quadruplicate wells. DPAT-treated T-cell adhesion to BSA-(rather than fibronectin) coated wells, and untreated T-cell adhesion to fibronectin coated wells, were the standard negative controls.
Non-radioactive T-cell adhesion assays: Alternatively, T-cell adhesion assays were performed with non-radioactively labeled cells, differing from the above protocol only in the final detection steps which were performed as follows: After the final washing of the adhesion plates and removal of the non adherent cells, the microtiter wells were supplemented with lysis and substrate solution (60 μl/well of: 0.5% Triton X-100 in water mixed with an equal volume of 7.5 mM p-nitrophenol-N-acetyl-β-D-glucosaminide, (Sigma Chemicals, St. Louis, Mo.) in 0.1M citrate buffer pH=5.0). The plates were then incubated (˜18hr) in a CO2-free 37° C. incubator, supplemented with stop solution (90 μl/well of 50 mM glycine, (Sigma Chemicals, St. Louis, Mo.) pH=10.4 containing 5 mM EDTA), and the optical density was measured at 405 nm in a standard Elisa reader.

[5] = test system: resting human peripheral T-cells; assay: Gene expression, Atlas human cDNA expression array; format: cell-based; details: DPAT 10 nM, 24 hours
Experimental: Poly A+RNA was extracted from human T-lymphocytes before and after treatment with 10 nM DPAT for 24 hours, using the Atlas Pure Total RNA Labeling System (Clontech Laboratories, Inc. Palo Alto, Calif.) according to manufacturers recommendations. […] Hybridizations to the Atlas Human cDNA Expression Arrays membranes (Catalog No. 1.2 KIII (7850-1) and III (7855-1), Clontech Laboratories) were performed by Clonetech Laboratories, as described in the user manual, and the expression pattern of up and down regulated genes was visualized by autoradiography.
Poly A+ RNA was prepared from both DPAT- treated and untreated cells and reverse transcribed to ^32P-labeled cDNA. Using an Atlas human cDNA expression array (i.e. a positively charged nylon membrane spotted with 1200 different human cDNAs) for identification of effected genes, the reverse transcribed products were characterized by hybridization to the atlas membranes. The differential pattern of expression between untreated cells and DPAT-treated cells was visualized by autoradiography, and quantified by densitometry. (FIGS. 20A and 20B). […] This member of the ovalbumin family of serine protease inhibitors is expressed at elevated levels in patients with acute myeloid leukemia and chronic myelomonocytic leukemia, inhibits TNF alpha-induced cell death, and has been linked to the regulation of protease activities in early hematopoiesis (Riewald, M et al Blood 1998;91:1256-62 and Schleef R R and Chuang T L J Biol Chem 2000;275:26385-9).

[6] = test system: oxazalone-sensitized T-cells; assay: Passively transferred delayed type hypersensitivity (DTH) with T-cells treated ex vivo; format: in vivo, mouse
Experimental: Lymph nodes were removed from oxazalone-sensitized mice, and the T-cell suspension was exposed ex-vivo to increasing concentrations of DPAT (FIG. 9A, DPAT […]-DPAT 10^−6M) as described for FIG. 8 hereinabove. Control T-cells were incubated with medium only (untreated T-cells). The T-cells were then washed, resuspended in PBS and injected intravenously into naive syngeneic mice. The ears of the recipient mice were than challenged with oxazalone, and the degree of ear swelling was measured by micrometer 24 hr later. DTH is expressed as the mean ±SD of ear swelling in units of 10^−2 mm. […] Oxazalone-sensitized T-cells were incubated ex vivo for one hour with either DPAT (10^−8 M, +DPAT) or U-Mal (10^−7 M, +U-Mal), or both. The T-cells were then washed, resuspended in PBS, injected intravenously into normal recipients, and DTH measured as described hereinabove. […] FIGS. 9A and 9B represent two individual experiments, each experimental group consisting of 8 mice.
Passively transferred delayed type hypersenisitivity (DTH): Groups of 6-8 BALB/c female mice (The Jackson Laboratory, Bar Harbor, Mass., USA) were sensitized on the abdominal skin with 200 μt of 2% oxazalone dissolved in acetone/olive oil [4:1 vol/vol)] applied topically. Five days later, lymph nodes were removed from the sensitized mice, and a cell suspension prepared. The cells (3-5×10^6/ml in RPMI, no additional supplements) were than added for […] incubation ([…]. 37° C., 10% CO2 humidified incubator) with either DPAT, U-Mal, or both (in the latter combination the antagonist added 5 minutes before the agonist). The cells were than washed, resuspended in PBS, and injected IV (40×10^6 /mouse) into normal BALB/c recipients. Immediately afterwards the recipient mice were […] with 10 μl of 2% oxazalone in acetone/olive oil, applied topically to each side of the ear. A constant area of the ear was measured immediately before challenge and 24 hr after the challenge with a Mitutoyo engineer's micrometer. The individual measuring the ear swelling was unaware of the identity of the mice groups. The DTH reaction is expressed as the mean±SD (for each group) of the increment of ear swelling 24 hours after inoculation of the oxazalone-sensitized T-cells, in units of 10^−2 mm.

IL-10 secretion = IL-10 secretion by human peripheral T-cells (sandwich ELISA); format: cell-based; details: agonist 10^−7 M, 72 hours
From the text: The results are expressed as pg/ml IL-10. […] Immunostaining is with intracellular anti-IL-10 FITC conjugated (FL-1) and anti-CD4 PE conjugated (FL-2) antibodies, as described in Materials and Methods hereinbelow.
The results are expressed as pg/mi.
(§2) The results are expressed as pg/ml.
as §2, §2

normal human T-cells [7] = assay: Proliferation of resting normal human T-cells (CyQuant); format: cell-based; details: 48 hours
Experimental: FIGS. 18A-C depict the proliferation of resting normal human and cultured Jurkat T-cells induced by physiological concentrations of DPAT. […] Numbers of T-cells were evaluated using the CyQuant cell proliferation assay kit (Molecular Probes), according to the manufacturer instructions. FIG. 18A represents a calibration of the CyQuant cell kit, showing the linear relationship between the fluorescent intensity and untreated human T-cell number. Note the similar maximal enhancement of T-cell proliferation with 10^−10M DPAT in purified normal human (18B) and cultured Jurkat T-cells (FIG. 18C).

[8] = test system: Bomapin (protease inhibitor 10, PI 10); assay: RT-PCR analysis of Bomapin mRNA in peripheral T-cells; format: cell-based, human; details: DPAT 10 nM; not shown

CCCN(CCC)C1CCc2ccc(O)cc2C1 (stereo not drawn) [DPAT, 7-Hydroxy-DPAT]
level of depolarization, comparable extracellular K^+ concentration (normal human T-cells [1]): ~20 mM
depolarization of normal human T-cells (normal human T-cells [1]; di-BA-C4(3) oxanol dye): clear depolarization
shift of membrane potential (normal human T-cells [1]; from a resting potential of ˜48 mV): ~6 mV
depolarization of mouse antigen specific T-cells [2]: clear depolarization
severity of EAE in recipient mice ([3]; T-cells incubated 1 hour with DPAT 10^−8 M ex vivo, IV into naive SJL/J mice, documented 5-12 days later): significantly reduced the severity
percentage of mice developing EAE, individual experiments ([3]; mice injected with DPAT-treated T-cells, four independent experiments): 83% and 60% (2×) and 80%
percentage of mice developing EAE, mean of four experiments ([3]; mice injected with DPAT-treated T-cells, p<0.01 vs untreated T-cells): 70%
DPAT-treated T-cell adhesion to BSA-coated wells (normal human T-cells [4]; DPAT 10 nM, BSA- instead of fibronectin-coated wells (negative control)): < 6%
adhesion when T-cells or fibronectin-coated wells were transiently exposed to DPAT (normal human T-cells [4]; DPAT 10^−8 M, washed before seeding): significant adhesion of T-cells to fibronectin was evident only if the T-cells
optimum concentration for induction of T-cell adhesion to fibronectin (normal human T-cells [4]; dose dependence, human T-cells): 10 nM
down-regulation of gene expression [5]: down-regulated the expression of others
expression of Lupus LA protein and Cathepsin E precursor [5]: induced expression of Lupus LA protein and Cathepsin E precursor
expression of the serine protease inhibitor Bomapin [5]: induction of expression
over expression of mRNA (upregulated genes) [5]: induced the over expression of mRNA encoding for several genes
DTH (ear swelling) caused by oxazalone-sensitized T-cells ([6]; DPAT 10^−8 M ex vivo, 1 hr, ear swelling 24 hr after challenge): significantly reduced
DTH suppression at higher and lower concentrations ([6]; DPAT concentrations other than 10^−8 M): either less or not at all effective
reduction of DTH ([6]; DPAT ex vivo, ear swelling 24 hr after challenge): > 60%
induction of IL-10 secretion by receptor-specific Dopamine agonists (IL-10 secretion): induced by the D2 and D3
DPAT concentration of maximal enhancement of proliferation, normal human T-cells (normal human T-cells [7]): 10^−10 M
proliferation of normal human T-cells relative to untreated cells (normal human T-cells [7]; DPAT 10^−8 M to 10^−10 M): up to 5 times that of untreated cells
abundance of Bomapin transcripts [8]: increased abundance of Bomapin transcripts
